Test results reported in patent US8519110B2, “mRNA cap analogs” (Board of Supervisors of Louisiana State University And …, priority 2008, dated 2013).
Read-outs that look alike come from different tables or passages of the source. One block for each molecule: values may come before it.

Assays:
[1] = Chemical stability in solution and on storage; format: physicochemical
Procedure: FIG. 5 depicts the synthesis of m2^7,2′-OGppSepG. The selenophosphate (PSeO3^−3) was prepared by a modification of the method described in R. Glass et al., “Selenophosphate,” Meth. Enzymol., vol. 252, pp. 309-315 (1995). Trimethylsilyl phosphite was treated with selenium in pyridine to give trimethylsilyl selenophosphate, which was then desilylated by methanol in the presence of triethylamine to give the selenophosphate triethylammonium salt. This compound was coupled with the imidazolide derivative of 7,2′-O-dimethylguanosine 5′-monophosphate (m2^7,2′-OGMP-Im) to give 7,2′-O-dimethylguanosine 5′-O-(2-selenodiphosphate) (m2^7,2′-OGDPβSe). […] The reaction was very rapid; essentially 100% conversion of m2^7,2′-OGMP-Im into m2^7,2′-OGDPβSe was observed by RP HPLC after 15 min. […] Thus, care was taken to maintain the pH at 7 or above during purification of m2^7,2′-OGDPβSe, which allowed the product to be isolated with 80% yield after ion-exchange chromatography. The m2^7,2′-OGDPβSe was then coupled with the imidazolide derivative of GMP in the presence of excess ZnCl2. Two peaks were observed by RP HPLC, corresponding to two m2^7,2′-OGppSepG diastereomers, which were designated D1 and D2 according to their elution order. However, the coupling proceeded slowly, and complete disappearance of m2^7,2′-OGDPβSe took about two days. The extended reaction time allowed partial hydrolysis of m2^7,2′-OGDPβSe to m2^7,2′-OGMP, and only a moderate reaction yield (40% conversion by HPLC, 25% isolated). The diastereomeric mixture of m2^7,2′-OGppSepG after isolation by ion-exchange chromatography was successfully resolved into pure diastereomers by RP HPLC. The products were characterized by mass spectrometry, ^1H NMR, and ^31P NMR to confirm structures and homogeneity.

cultured mammalian cells [2] = conditions: compared with ARCA-capped mRNA; cited from earlier work
recombinant human Dcp2 = recombinant human Dcp2 (Homo sapiens, UniProt Q8IU60); conditions: mRNAs capped with the analog; cited from earlier work
eIF4E [3] = target: T1, eIF4E (Mus musculus, UniProt P63073); conditions: literature comparison; cited from earlier work
cultured mammalian cells [4] = conditions: compared with ARCA-capped (m2^7,3′-OGpppG) mRNA; cited from earlier work
Human DcpS = target: T2, Human DcpS (Homo sapiens, UniProt Q96C86); experiment: Assay of susceptibility to DcpS (RP HPLC); format: biochemical; conditions: 40 μM cap analog, 30° C., up to 120 min
T2 construct: made in house; host or cells: Escherichia coli
T2 sequence (Q96C86 1-337): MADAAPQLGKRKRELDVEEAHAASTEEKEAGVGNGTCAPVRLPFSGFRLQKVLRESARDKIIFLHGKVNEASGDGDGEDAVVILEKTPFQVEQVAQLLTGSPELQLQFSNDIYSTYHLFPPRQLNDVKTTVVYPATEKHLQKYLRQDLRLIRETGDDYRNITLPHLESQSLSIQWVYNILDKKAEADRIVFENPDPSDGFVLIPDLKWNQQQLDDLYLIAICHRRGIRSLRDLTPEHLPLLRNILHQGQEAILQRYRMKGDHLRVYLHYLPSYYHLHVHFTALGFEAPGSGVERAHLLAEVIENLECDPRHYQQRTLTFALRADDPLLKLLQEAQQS
Procedure: Human DcpS was expressed in Escherichia coli as described in L. Cohen et al., “Nematode m^7GpppG and m3^2,2,7GpppG decapping: activities in Ascaris embryos and characterization of C. elegans scavenger DcpS,” RNA, vol. 10, pp. 1609-1624 (2004). A 15 μM solution of the protein in 20 mM Tris buffer, pH 7.5, containing 50 mM KCl, 0.2 mM EDTA, 1 mM DTT, 0.5 mM PMSF, and 20% glycerol was stored at −80° C. until used. Enzymatic reactions were carried out at 30° C. in 500 μl of 50 mM Tris-HCl, pH 7.9, containing 20 mM MgCl2 and 60 mM (NH4)2SO4. A 40 μM solution of the selected cap analog was treated with 5.0 μl of DcpS for 120 min. At times of 10, 30, 60, and 120 min, a 100-μl sample was collected from the reaction mixture and deactivated by incubation at 90° C. for 2 min. Samples were analyzed without further treatment by analytical RP HPLC with a linear gradient of methanol in 0.1 M KH2PO4, pH 6.0, from 0-50% over 15 min.

eIF4E [5] = target: T1, eIF4E; experiment: Binding affinity of cap analogs to eIF4E by fluorescence titration; conditions: equilibrium association constant; 20 °C, pH 7.2, ionic strength 150 mM
Procedure: Fluorescence titration measurements were carried out on an LS-50B or LS-55 spectrofluorometer (Perkin Elmer Co.) at 20.0±0.2° C. in 50 mM HEPES/KOH (pH 7.2), 0.5 mM EDTA, and 1 mM DTT, with ionic strength adjusted to 150 mM by addition of KCl. Various cap analogue solutions, of increasing concentration, were added in 1 μl aliquots to 1.4 ml of 0.1 or 0.2 μM protein solutions. Fluorescence intensities were measured with excitation at 280 nm or 295 nm with 2.2 nm bandwidth, and detection at 337 nm with 4 nm bandwidth and a 290-nm cut-off filter. The data were corrected for sample dilution and inner filter effects. Equilibrium association constants (Kas) were determined by fitting the theoretical dependence of fluorescence intensity on cap analog concentration to the experimental data, as otherwise described in A. Niedźwiecka et al., “Biophysical studies of eIF4E cap-binding protein: recognition of mRNA 5′ cap structure and synthetic fragments of eIF4G and 4E-BP1 proteins,” J. Mol. Biol., vol. 312, pp. 615-635 (2002). The concentration of protein was allowed to be a free parameter in the equilibrium equation, to determine the amount of “active” protein. The final Kas was calculated as a weighted average of three to ten independent titrations, with the weights taken as the reciprocals of the squares of the numerical standard deviations. Numerical nonlinear least-square regression analysis was performed using ORGIN 6.0 (Microcal Software Inc., USA).
The binding affinities of eukaryotic eIF4E for various cap analogs were determined by fluorescence quenching. This biophysical test allows one to predict the potential efficacy of cap analogs in translation. Those having higher affinities for eIF4E than the unmodified cap analog (m^7GpppG) are expected to be better recognized by the translational machinery, leading to higher translational efficiencies. They also are expected to compete more effectively with unmodified mRNA when free cap dinucleotides are used to inhibit translation. See generally E. Grudzien-Nogalska et al., “Synthesis of anti-reverse cap analogs (ARCAs) and their applications in mRNA translation and stability,” Methods Enzymol., vol. 431, pp. 203-227 (2007).

[6] = tested on: rabbit reticulocyte lysate system; experiment: In vitro translation efficiency of capped luciferase mRNA with 31-base poly(A) tail, method II transcripts; format: biochemical
Procedure: Capped, polyadenylated luciferase mRNAs were synthesized in vitro by PCR from a dsDNA template that contained the SP6 promoter, the 5′-UTR sequence of rabbit β-globin mRNA, the entire firefly luciferase coding region, and 31 adenosine residues. A typical transcription reaction mixture (40 μl) contained SP6 transcription buffer (Fermentas), 0.7 ug of DNA template, 1 U/μl RiboLock Ribonuclease Inhibitor (Fermentas), 0.5 mM each of ATP, CTP, and UTP, 0.1 mM GTP, and 0.5 mM dinucleotide cap analog. The reaction mixture was incubated at 37° C. for 5 min before addition of SP6 RNA polymerase (Fermentas) to a final concentration of 1 U/μl, and incubation then continued for 45 min at 37° C. The reaction mixture was treated with DNase as in Method I. RNA transcripts were purified with NucAway Spin Columns (Ambion). The integrity of transcripts and quantitation was performed as in Method I.
A micrococcal nuclease-treated rabbit reticulocyte lysate system (Flexi Rabbit Reticulocyte Lysate System, Promega) was used for in vitro translation. Translation reactions were performed in 10 μl for 60 min at 30° C. A typical reaction mixture contained 40% reticulocyte lysate, the 20 “standard” amino acids (0.01 mM each), MgCl2 (1.2 mM), potassium acetate (170 mM), and mRNA (five different concentrations of each transcript, ranging from 0.25 to 4 μg/ml). Luciferase activity was measured in a luminometer (Glomax, Promega). Linear regression was used to fit the data points (luciferase activity versus concentration of mRNA transcript), and translational efficiency was defined as the slope of this line. The relative translational efficiencies of the test mRNAs were compared to that of m^7GpppG-capped luciferase mRNA, the latter being defined as 1.0.

[7] = target: cap-dependent translation of luciferase mRNA in reticulocyte lysate; experiment: Inhibition of cap-dependent translation in vitro by free cap analogs; format: biochemical, rabbit
Procedure: In vitro translation reactions were performed in 12.5 μl for 60 min at 30° C. under conditions favorable for cap-dependent translation. In some cases, the reaction mixture was incubated for 60 min at 30° C. prior to adding the dinucleotide cap analog (inhibitor) and m2^7,3′-OGppG-capped luciferase mRNA to start translation. In other cases, to analyze biological stability, the cap analog was incubated in the translation mixture for 60 min at 30° C. prior to adding the luciferase mRNA to start translation. A typical reaction mixture contained 56% reticulocyte lysate, the 20 “standard” amino acids (0.01 mM each), MgCl2 (1.2 mM), potassium acetate (170 mM), RiboLock Ribonuclease Inhibitor (0.32 U/μl), cap analog solution ( 1/10 of total reaction volume), and m2^7,3′-OGpppG-capped luciferase RNA. […] Reactions were performed with cap analog concentrations ranging from 0.12 to 100 μM. Luciferase activity was measured in a luminometer. […] The program OriginPro8 (OriginLab) was used for curve fitting with the equation qLUC=Z/(1+I/IC50)+N, where qLUC is the activity of luciferase synthesized in the presence of cap analog, Z is the activity of luciferase synthesized in the absence of cap analog, N is the activity of luciferase synthesized in a cap-independent manner, and I is the cap analog concentration.
Two type of experiments were carried out. In one set of experiments (condition A), a cap analog was added to the translation system together with luciferase mRNA. In the other set of experiments (condition B), the cap analog was incubated in the translation system for 60 min before addition of mRNA. […] There was a correlation between the resistance to hydrolysis by DcpS and the stability of analogs in the translation system.

[8] = cap analog added together with luciferase mRNA, read-out: Inhibition of in vitro translation (IC50), condition A
[9] = cap analog incubated in translation system 60 min before addition of mRNA, read-out: Inhibition of in vitro translation (IC50), condition B

T1 sequence (P63073 28-217 limits assumed): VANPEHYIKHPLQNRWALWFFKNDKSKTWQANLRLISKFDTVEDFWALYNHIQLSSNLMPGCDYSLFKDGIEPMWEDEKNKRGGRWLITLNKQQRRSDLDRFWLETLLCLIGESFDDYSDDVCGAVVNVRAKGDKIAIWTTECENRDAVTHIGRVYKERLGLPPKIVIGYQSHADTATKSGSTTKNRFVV

SMILES: COC1C(O)C(COP(=O)([O-])OP(O)(O)=[Se])OC1n1c[n+](C)c2c(=O)[nH]c(N)nc21 (centres unmarked) [m2^7,2′-OGDPβSe, 7,2′-O-dimethylguanosine 5′-O-(2-selenodiphosphate)]
- Stability in acidic aqueous solutions ([1]; acidic aqueous solutions, hydrolyzed to m2^7,2′-OGMP): unstable
- Stability in neutral or basic solutions ([1]; neutral or basic solutions): only moderately stable

SMILES: CO[C@H]1[C@@H](O)[C@H](n2c[n+](C)c3c(=O)[nH]c(N)nc32)O[C@@H]1COP(=O)([O-])OP(=O)(O)CP(=O)(O)OC[C@H]1O[C@@H](n2cnc3c(=O)[nH]c(N)nc32)[C@H](O)[C@@H]1O [m2^7,3′-OGppCH2pG]
- Overall translational efficiency of capped mRNA in cells (cultured mammalian cells [2]): lower overall translational efficiency
- Hydrolysis of capped mRNA by recombinant human Dcp2 in vitro (recombinant human Dcp2): resistant to hydrolysis
- Binding affinity for eIF4E (eIF4E [3]): lower binding affinity for eIF4E than that of m2^7,3′-OGpppG
- Stability of capped mRNA in cultured cells (cultured mammalian cells [4]): more stable than those capped with m2^7,3′-OGpppG

- Susceptibility to DcpS (Human DcpS): resistant
- Cap analog/eIF4E affinity (KAS) (eIF4E [5]): 44 ± 2 μM^−1
- Translation efficiency in comparison to m^7GpppG-LUC-(A)31 mRNA, Experiment No. 4 ([6]; experiment 4): 1.65
- Translation efficiency in comparison to m^7GpppG-LUC-(A)31 mRNA, Experiment No. 5 ([6]; experiment 5): 2.17
- Translation efficiency in comparison to m^7GpppG-LUC-(A)31 mRNA, Mean ([6]; mean of experiments): 1.91
- IC50 [7, 8]: 1600 ± 300 nM
- IC50 [7, 9]: 1300 ± 100 nM
SMILES: [BH3-]P(=O)(OP(=O)(O)OCC1OC(n2cnc3c(=O)[nH]c(N)nc32)C(O)C1O)OP(=O)(O)OCC1OC(n2c[n+](C)c3c(=O)[nH]c(N)nc32)C(O)C1O (single isomer, unassigned) [m^7GppBH3pG (D1), m^7GppBH3pG]

- Susceptibility to DcpS (Human DcpS): hydrolyzed
- Cap analog/eIF4E affinity (KAS) (eIF4E [5]): 14.4 ± 0.6 μM^−1
- IC50 [7, 8]: 3100 ± 200 nM
- IC50 [7, 9]: 16400 ± 800 nM
SMILES: [BH3-]P(=O)(OC[C@H]1O[C@@H](n2cnc3c(=O)[nH]c(N)nc32)[C@H](O)[C@@H]1O)OP(=O)(O)OP(=O)(O)OC[C@H]1O[C@@H](n2c[n+](C)c3c(=O)[nH]c(N)nc32)[C@H](O)[C@@H]1O (single isomer, unassigned) [m^7GpppBH3G (D2), m^7GpppBH3G]
